In data set [1] the target is T1, Proteasome subunit beta type-9 (Homo sapiens, UniProt P28065).
T1 sequence (P28065 whole entry): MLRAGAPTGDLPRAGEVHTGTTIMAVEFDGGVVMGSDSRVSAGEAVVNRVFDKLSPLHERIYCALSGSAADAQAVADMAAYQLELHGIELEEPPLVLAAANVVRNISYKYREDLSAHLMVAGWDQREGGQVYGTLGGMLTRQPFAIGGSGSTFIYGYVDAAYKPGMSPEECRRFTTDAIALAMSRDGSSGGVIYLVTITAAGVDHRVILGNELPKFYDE
In words: Inhibition of human 20S immunoproteasome beta-1i subunit using (Ac-PAL)2R110 as substrate preincubated for 2 hrs followed by substrate addition and measured after 1 hr by fluorescence intensity assay.

The target in data set [2] is T2, Proteasome subunit beta type-10 (Homo sapiens, UniProt P40306).
T2 sequence (P40306 whole entry): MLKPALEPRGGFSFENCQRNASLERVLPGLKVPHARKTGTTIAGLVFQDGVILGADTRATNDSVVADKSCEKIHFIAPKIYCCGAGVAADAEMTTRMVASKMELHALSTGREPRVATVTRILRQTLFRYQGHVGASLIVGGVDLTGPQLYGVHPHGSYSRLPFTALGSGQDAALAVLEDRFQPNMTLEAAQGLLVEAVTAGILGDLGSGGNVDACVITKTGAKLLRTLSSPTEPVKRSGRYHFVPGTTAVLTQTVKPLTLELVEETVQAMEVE
In words: Inhibition of human 20S immunoproteasome beta-2i subunit using Ac-RLR-AMC as substrate preincubated for 2 hrs followed by substrate addition and measured after 1 hr by fluorescence intensity assay.

In data set [3] the target is T3, Proteasome subunit beta type-8 (Homo sapiens, UniProt P28062).
T3 sequence (P28062 whole entry): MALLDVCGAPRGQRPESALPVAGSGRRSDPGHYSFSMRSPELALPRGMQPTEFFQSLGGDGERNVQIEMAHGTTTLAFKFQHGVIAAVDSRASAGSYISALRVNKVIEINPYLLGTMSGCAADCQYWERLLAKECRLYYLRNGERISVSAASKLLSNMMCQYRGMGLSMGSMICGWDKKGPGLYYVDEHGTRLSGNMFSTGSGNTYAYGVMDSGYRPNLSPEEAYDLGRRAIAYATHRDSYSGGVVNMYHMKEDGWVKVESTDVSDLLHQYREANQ
In words: Inhibition of human 20S immunoproteasome beta-5i subunit using Suc-LLVY-AMC as substrate preincubated for 2 hrs followed by substrate addition and measured after 1 hr by fluorescence intensity assay.

Data set [4] deals with T4, Proteasome subunit beta type-7 (Homo sapiens, UniProt Q99436).
T4 sequence (Q99436 whole entry): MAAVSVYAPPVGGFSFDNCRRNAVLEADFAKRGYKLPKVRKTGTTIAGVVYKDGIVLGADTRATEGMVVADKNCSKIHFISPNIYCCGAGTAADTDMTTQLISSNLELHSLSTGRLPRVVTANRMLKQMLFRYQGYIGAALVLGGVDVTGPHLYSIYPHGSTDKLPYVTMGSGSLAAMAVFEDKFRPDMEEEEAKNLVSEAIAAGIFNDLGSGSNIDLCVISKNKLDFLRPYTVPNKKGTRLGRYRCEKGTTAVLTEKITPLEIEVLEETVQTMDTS
As to the kind of experiment: Inhibition of human 20S proteasome beta2 subunit using Ac-RLR-AMC as substrate preincubated for 2 hrs followed by substrate addition and measured after 1 hr by fluorescence intensity assay.

The target of data set [5] is T5, Proteasome Macropain subunit MB1 (Homo sapiens, UniProt P28074).
T5 sequence (P28074 whole entry): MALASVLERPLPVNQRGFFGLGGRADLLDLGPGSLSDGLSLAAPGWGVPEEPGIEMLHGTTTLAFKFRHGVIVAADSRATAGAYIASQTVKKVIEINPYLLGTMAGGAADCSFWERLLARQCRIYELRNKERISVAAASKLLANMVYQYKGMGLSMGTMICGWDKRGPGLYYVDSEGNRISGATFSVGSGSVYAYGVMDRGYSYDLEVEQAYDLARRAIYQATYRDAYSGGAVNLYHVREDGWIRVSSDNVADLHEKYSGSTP
In words: Inhibition of human 20S proteasome beta5 subunit using Suc-LLVY-AMC as substrate preincubated for 2 hrs followed by substrate addition and measured after 1 hr by fluorescence intensity assay.

The species named for another data set is Homo sapiens. As to the kind of experiment: Selectivity ratio of IC50 for inhibition of human 20S proteasome beta5 subunit to IC50 for inhibition of human 20S immunoproteasome beta-5i subunit.
Data set [6] addresses T5, Proteasome Macropain subunit MB1. As to the kind of experiment: Inhibition of 20S proteasome beta5 subunit in human A549 cells using Suc-LLVY-luciferin substrate preincubated for 2 hrs followed by substrate addition and measured after 30 mins by luminometric analysis. The format is cell-based.
Data set [7] deals with T3, Proteasome subunit beta type-8. In words: Inhibition of 20S immunoproteasome beta-5i subunit in human PBMC using Ac-ANW-luciferin substrate preincubated for 2 hrs followed by substrate addition and measured after 30 mins by luminometric analysis. The format is cell-based.
Data set [8] is described as follows: Lipophilicity, log P of the compound. As to conditions: octanol/water. The format is physicochemical.
A short description of data set [9]: Distribution coefficient, log D of the compound. The format is physicochemical. The following applies: octanol/water.
Data set [10] is described as follows: Intrinsic clearance in human liver microsomes measured per mg protein. The format is ADME, Microsome. A general note: Liver microsomes are vesicles of endoplasmic reticulum, rich in cytochrome P450 enzymes.
The nature of data set [11]: Intrinsic clearance in mouse liver microsomes measured per mg protein. As to conditions: read-out: CLH. The format is ADME, Microsome.
A short description of data set [12]: Half life in iv dosed mouse. In kind it is ADME, organism-based. As to conditions: in vivo.
A short description of data set [13]: Clearance in mouse hepatocytes measured per million of cells. The following applies: read-out: CLH. The format is ADME, cell-based, Hepatocyte.
Data set [14] is described as follows: Clearance in human hepatocytes measured per million of cells. The format is ADME, cell-based, Hepatocyte. The following applies: read-out: CLH.
Data set [15] is described as follows: Cytotoxicity against human HepG2 cells assessed as depletion of ATP content incubated for 48 to 72 hrs by CellTiter-Glo luminescent assay. In kind it is toxicity, cell-based. (In general: In ATP-based viability assays light output follows the ATP content of the culture.)
A short description of data set [16]: Cytotoxicity against Wistar Han rat hepatocytes assessed as depletion of ATP content incubated for 48 to 72 hrs by CellTiter-Glo luminescent assay. The format is toxicity, cell-based, Hepatocyte.
The nature of data set [17]: Cytotoxicity against human primary hepatocytes assessed as depletion of ATP content incubated for 48 to 72 hrs by CellTiter-Glo luminescent assay. The format is toxicity, cell-based, Hepatocyte.
The subject of data set [18] is 20S immunoproteasome beta-5i subunit. In words: Selectivity ratio of IC50 for cytotoxicity against Wistar Han rat hepatocytes to IC50 for inhibition of 20S immunoproteasome beta-5i subunit in human PBMC. The format is toxicity. The following applies: read-out: Ratio IC50.
Data set [19] has the same test system. As to the kind of experiment: Selectivity ratio of IC50 for cytotoxicity against human primary hepatocytes to IC50 for inhibition of 20S immunoproteasome beta-5i subunit in human PBMC. In kind it is toxicity. The following applies: read-out: Ratio IC50.
Data set [20] concerns U-266. In words: Antitumor activity against human U266B1 cells xenografted in H2d Rag2 mouse assessed as reduction in tumor volume at 1 mg/kg, po administered once daily and measured for 21 days. The format is functional, organism-based. As to conditions: time 21.0 day. (In general: A xenograft is tissue or cells of one species grown in another, often human tumour cells in immunodeficient mice.)

The nature of data set [21]: Toxicity in H2d Rag2 mouse xenografted with human U266B1 cells assessed as change in body weight at 0.3 to 1 mg/kg, po administered once daily and measured for 21 days. The format is organism-based, U-266. The following applies: in vivo, 504 h, dose 0.3-1 mg/kg, time 21 day.
Data set [22] deals with U-266. In words: In vivo inhibition of LMP7 activity in tumor lysates of H2d Rag2 mouse xenografted with human U266B1 cells at 1 mg/kg, po administered as single dose using (Ac-ANW)2R110 as substrate measured up to 14 hrs by fluorescence intensity assay. In kind it is functional, organism-based. As to conditions: Neoplasm.
Data set [23] is described as follows: Oral bioavailability in mouse at 10 mg/kg. The format is ADME, organism-based. The following applies: in vivo.

Active and inactive are the calls of the source. No cut-off for these calls is given here.

The values below come from ChEMBL document CHEMBL5149996, “Structure-Based Optimization and Discovery of M3258, a Specific Inhibitor of the Immunoproteasome Subunit LMP7 (β5i)” (J Med Chem, 2021).

The IC50 is the concentration at which inhibition is half-maximal. The term logP denotes the decadic logarithm of the partition coefficient of the neutral form, usually between octanol and water. Low readings indicate lower lipophilicity, high ones higher lipophilicity. By logD is commonly meant lipophilicity at a set pH, counting ionised and neutral species. Lower therefore signals a more hydrophilic compound. As usually defined, the half-life is the time in which the quantity being followed falls by half. Higher therefore signals slow decline. Usually bioavailability stands for dose-corrected exposure relative to a reference, in per cent. The low end stands for little systemic uptake, the high end for much systemic uptake.

For the compound `O=C(N[C@@H](Cc1coc2ccccc12)B(O)O)[C@@H]1C[C@H]2CC[C@@H]1O2`, the half-inhibitory concentration (IC50) in [1] is over 30 µM; in [2] it was over 30 µM; in data set [3], 0.0036 µM; in data set [4] it was over 30 µM; in data set [5], 2.5 µM; in [6] it was 1.03 µM. The concentration for half-maximal inhibition (IC50) worked out at 0.0034 µM in data set [7], 48 µM in data set [15], 64 µM in data set [16] and 91 µM in [17]. Besides, in the data set filed under Homo sapiens, the Ratio IC50 was 684. The logP in data set [8] came out at 2.34. For the same compound, the logD in data set [9] came out at 1.1. The CLH in data set [10] was under 10 µL/min/mg. The microsomal CLint in data set [11] worked out at 14 µL/min/mg. Moreover, the half-life in [12] was 1.71 h. For the same compound, the hepatocyte CLint in data set [13] is 15 µL/min/1e6 cells; in [14] it was 6.2 µL/min/1e6 cells. Also, the selectivity ratio in [18] and in data set [19] was 10000 each time. Also, the result with U-266 [20] was Active. Besides, the Activity entry in data set [21] is “Non-Toxic”. Besides, the inhibition entry with U-266 [22] is “Active”. This compound showed a bioavailability in data set [23] of 35%.
